Results: PubChem BioAssay (NCI)
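Cells were grown in 96-well plates and exposed to each compound for 48 hours at five concentrations; endpoints were interpolated linearly between bracketing concentrations, or set to the highest concentration if not reached. TGI: total growth inhibition.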

Assays:
Assay in all cases: inhibition of tumour cell growth, NCI panel, 48 h
A498 renal = tested on: A498 renal
SR leukemia = tested on: SR leukemia
HL-60(TB) leukemia = tested on: HL-60(TB) leukemia
NCI-H226 lung = tested on: NCI-H226 lung
ACHN renal = tested on: ACHN renal
MCF7 breast = tested on: MCF7 breast
SF-539 CNS = tested on: SF-539 CNS
UACC-257 melanoma = tested on: UACC-257 melanoma
MDA-MB-435 = tested on: MDA-MB-435
NCI-H522 lung = tested on: NCI-H522 lung
IGROV1 ovarian = tested on: IGROV1 ovarian
MOLT-4 leukemia = tested on: MOLT-4 leukemia
UO-31 renal = tested on: UO-31 renal
HCC-2998 colon = tested on: HCC-2998 colon
BT-549 breast = tested on: BT-549 breast
DU-145 prostate = tested on: DU-145 prostate
TK-10 renal = tested on: TK-10 renal
SF-295 CNS = tested on: SF-295 CNS
CCRF-CEM leukemia = tested on: CCRF-CEM leukemia
U251 CNS = tested on: U251 CNS
SK-OV-3 ovarian = tested on: SK-OV-3 ovarian
M14 melanoma = tested on: M14 melanoma
SN12C renal = tested on: SN12C renal
MDA-N = tested on: MDA-N
HCT-15 colon = tested on: HCT-15 colon
PC-3 prostate = tested on: PC-3 prostate
RPMI-8226 leukemia = tested on: RPMI-8226 leukemia
SNB-19 CNS = tested on: SNB-19 CNS
SNB-75 CNS = tested on: SNB-75 CNS
SK-MEL-5 melanoma = tested on: SK-MEL-5 melanoma
NCI-H460 lung = tested on: NCI-H460 lung
OVCAR-5 ovarian = tested on: OVCAR-5 ovarian
SK-MEL-2 melanoma = tested on: SK-MEL-2 melanoma
SW-620 colon = tested on: SW-620 colon
COLO 205 colon = tested on: COLO 205 colon
UACC-62 melanoma = tested on: UACC-62 melanoma
HCT-116 colon = tested on: HCT-116 colon
786-0 renal = tested on: 786-0 renal
OVCAR-3 ovarian = tested on: OVCAR-3 ovarian
SF-268 CNS = tested on: SF-268 CNS
NCI/ADR-RES ovarian = tested on: NCI/ADR-RES ovarian
HOP-62 NSCLC = tested on: HOP-62 NSCLC
MDA-MB-231 breast = tested on: MDA-MB-231 breast
OVCAR-4 ovarian = tested on: OVCAR-4 ovarian
KM12 colon = tested on: KM12 colon
NCI-H23 lung = tested on: NCI-H23 lung
K-562 leukemia = tested on: K-562 leukemia
LOX IMVI melanoma = tested on: LOX IMVI melanoma
A549 NSCLC = tested on: A549 NSCLC
EKVX NSCLC = tested on: EKVX NSCLC
HS 578T breast = tested on: HS 578T breast
HOP-92 NSCLC = tested on: HOP-92 NSCLC
T-47D breast = tested on: T-47D breast
HT29 colon = tested on: HT29 colon
CAKI-1 renal = tested on: CAKI-1 renal
SK-MEL-28 melanoma = tested on: SK-MEL-28 melanoma

SMILES: Cc1cc(C)n(-c2nc3ccccc3c(=O)[nH]2)n1
- TGI (A498 renal): > 63.8 µM
- TGI (SR leukemia): > 29.5 µM
- TGI (HL-60(TB) leukemia): > 33.7 µM
- TGI (NCI-H226 lung): > 66.8 µM
- TGI (ACHN renal): 21.8 µM
- TGI (MCF7 breast): > 100 µM
- TGI (SF-539 CNS): > 75 µM
- TGI (UACC-257 melanoma): > 100 µM
- TGI (MDA-MB-435): 26.9 µM
- TGI (NCI-H522 lung): 18.8 µM
- TGI (IGROV1 ovarian): 12.4 µM
- TGI (MOLT-4 leukemia): 50.5 µM
- TGI (UO-31 renal): 36.8 µM
- TGI (HCC-2998 colon): 31.3 µM
- TGI (BT-549 breast): > 100 µM
- TGI (DU-145 prostate): 21.3 µM
- TGI (TK-10 renal): > 100 µM
- TGI (SF-295 CNS): > 50.7 µM
- TGI (CCRF-CEM leukemia): > 100 µM
- TGI (U251 CNS): > 45.5 µM
- TGI (SK-OV-3 ovarian): > 100 µM
- TGI (M14 melanoma): > 100 µM
- TGI (SN12C renal): > 100 µM
- TGI (MDA-N): > 76.9 µM
- TGI (HCT-15 colon): 23.9 µM
- TGI (PC-3 prostate): 25.8 µM
- TGI (RPMI-8226 leukemia): > 41.9 µM
- TGI (SNB-19 CNS): > 72.1 µM
- TGI (SNB-75 CNS): > 71.6 µM
- TGI (SK-MEL-5 melanoma): 17.8 µM
- TGI (NCI-H460 lung): > 49.3 µM
- TGI (OVCAR-5 ovarian): > 100 µM
- TGI (SK-MEL-2 melanoma): 32.2 µM
- TGI (SW-620 colon): 38.9 µM
- TGI (COLO 205 colon): 17.1 µM
- TGI (UACC-62 melanoma): 21.3 µM
- TGI (HCT-116 colon): 21.6 µM
- TGI (786-0 renal): 19.6 µM
- TGI (OVCAR-3 ovarian): > 45 µM
- TGI (SF-268 CNS): > 47.1 µM
- TGI (NCI/ADR-RES ovarian): 13.9 µM
- TGI (HOP-62 NSCLC): > 43.7 µM
- TGI (MDA-MB-231 breast): 25.3 µM
- TGI (OVCAR-4 ovarian): > 100 µM
- TGI (KM12 colon): 23.1 µM
- TGI (NCI-H23 lung): 32.8 µM
- TGI (K-562 leukemia): > 100 µM
- TGI (LOX IMVI melanoma): 13.7 µM
- TGI (A549 NSCLC): > 35.5 µM
- TGI (EKVX NSCLC): 28.9 µM
- TGI (HS 578T breast): > 91.5 µM
- TGI (HOP-92 NSCLC): > 68.3 µM
- TGI (T-47D breast): 48.8 µM
- TGI (HT29 colon): > 100 µM
- TGI (CAKI-1 renal): 37.5 µM
- TGI (SK-MEL-28 melanoma): > 41.2 µM
